Data: US9927423B2, “LRRC8 proteins and protein complexes and methods for identification of channel modulators” (MAX-DELBRUECK-CENTRUM FUER MOLEKULARE MEDIZIN, priority 2014, dated 2018)

Key:
VRAC [1] = biological target: T1, VRAC (Homo sapiens, UniProt Q8IWT6); test: FLIPR YFP-quenching assay: hypotonicity-induced iodide influx into HEK cells expressing YFP(H148Q/I152L); assay type: cell-based; parameters: Swelling-induced iodide influx into HEK cells, which display typical ICl(swell) currents; endogenous in cells; host or cells: HEK293: a clone inducibly expressing YFP(H148Q/I152L) in A1, and HEK cells in A2; settings: hypotonic saline with 50 mM iodide, inhibitor included in the iodide-containing solution
T1 sequence (Q8IWT6 1-810): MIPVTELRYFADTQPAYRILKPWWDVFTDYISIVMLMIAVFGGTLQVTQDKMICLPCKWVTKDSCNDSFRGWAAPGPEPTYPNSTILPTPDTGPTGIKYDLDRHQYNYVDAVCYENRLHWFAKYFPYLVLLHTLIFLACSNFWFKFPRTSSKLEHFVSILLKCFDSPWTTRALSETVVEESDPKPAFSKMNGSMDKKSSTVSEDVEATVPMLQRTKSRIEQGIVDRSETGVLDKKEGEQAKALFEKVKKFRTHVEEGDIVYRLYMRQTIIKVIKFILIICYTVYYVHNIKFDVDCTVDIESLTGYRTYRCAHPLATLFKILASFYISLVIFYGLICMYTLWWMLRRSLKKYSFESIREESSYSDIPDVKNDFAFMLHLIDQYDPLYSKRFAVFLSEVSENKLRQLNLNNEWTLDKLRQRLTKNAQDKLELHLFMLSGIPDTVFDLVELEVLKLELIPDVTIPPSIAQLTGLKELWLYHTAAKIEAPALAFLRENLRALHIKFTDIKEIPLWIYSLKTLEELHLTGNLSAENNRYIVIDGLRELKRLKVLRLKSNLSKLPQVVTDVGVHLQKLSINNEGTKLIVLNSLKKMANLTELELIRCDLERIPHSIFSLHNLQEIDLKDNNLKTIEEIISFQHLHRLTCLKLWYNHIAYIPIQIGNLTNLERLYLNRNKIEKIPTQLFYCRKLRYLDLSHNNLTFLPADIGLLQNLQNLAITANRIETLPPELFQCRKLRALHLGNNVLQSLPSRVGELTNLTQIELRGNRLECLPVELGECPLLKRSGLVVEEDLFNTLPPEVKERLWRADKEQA
Text: To identify VRAC we opted for a genome-wide RNA interference screen that could identify non-redundant VRAC components even if the channel were a heteromer. Swelling-induced iodide influx into HEK cells, which display typical ICl(swell) currents (Nilius et al., 2001, Hernandez-Carballo et al.), was used as readout (FIG. 1A). We generated a clonal HEK cell line expressing a yellow fluorescent protein variant YFP(H148Q/I152L) whose fluorescence is efficiently quenched by iodide (Galietta et al.). The assay used the FLIPR™ fluorometric imaging plate reader system which allows parallel pipetting and continuous fluorescence measurements of all wells. The solution covering the cells was exchanged to a hypotonic or isotonic (control) saline containing 50 mM iodide and YFP fluorescence was followed over time (FIG. 1B). Compatible with a background permeation pathway for I^− the fluorescence decayed slowly in I^−-containing isotonic control solution. […]
The YFP-quenching assay was performed 72 h post-transfection. After having exchanged the cell culture medium in all wells of the plate with 10 μl of isotonic solution (in mM: 145 NaCl, 5 KCl, 1 MgCl2, 2 CaCl2, 10 glucose, 10 HEPES pH 7.4, 329 mOsm) in a Tecan Freedom EVO 200 workstation, the plates were transferred into the FLIPR™ (Molecular Devices) High Throughput Cellular Screening Device and fluorescence measurements were initiated. […]

Ras-transformed cells = Ras-transformed cells compared to WT cells; cited from earlier work
VRAC [2] = biological target: T1, VRAC; parameters: host or cells: human epidermis cancer cells; settings: human epidermis cancer cells; cited from earlier work

| SMILES | inhibition of hypotonicity-induced decrease in YFP fluorescence (quenching by iodide) (VRAC [1]) | further results |
| --- | --- | --- |
| CCCCC1(C2CCCC2)Cc2cc(OCCCC(=O)O)c(Cl)c(Cl)c2C1=O (stereo not shown) [DCPIB] | partially inhibited | – |
| CC1(C)[C@@H](OC(=O)CCC(=O)O)CC[C@]2(C)[C@H]3C(=O)C=C4[C@@H]5C[C@@](C)(C(=O)O)CC[C@]5(C)CC[C@@]4(C)[C@]3(C)CC[C@@H]12 [carbenoxolone] | partially inhibited | – |
| O=C(Nc1cc(C(F)(F)F)cc(C(F)(F)F)c1)Nc1ccc(Br)cc1-c1nnn[nH]1 [NS3728] | – | inhibition of cell migration (Ras-transformed cells): inhibit cell migration more strongly in Ras-transformed cells compared to WT cells |
| N.N.[Cl][Pt][Cl] [cisplatin] | – | effect on VRAC (VRAC [2]): activate VRAC |
